From patent US20070036776A1, “Bacterial signaling molecules that down-regulate pathogenic bacterial virulence properties” (priority 2004, published 2007)

Tested on: human peripheral blood mononuclear cells (PBMCs)
Assay type: cell-based

Substance | induction of T cell proliferation | concentration of maximum stimulation | half maximal proliferation
staphylococcal superantigen-like protein 11 [SSL11] | not able to induce | – | –
toxic shock syndrome toxin-1 [TSST-1] | – | 50 ng/mL | approximately 500 pg/mL
